Measured values published in patent US20150119476A1, “DEVELOPMENT, CHARACTERIZATION, AND USE OF AN ANTI-HYPUSINATED eIF5A ANTIBODY TO DIAGNOSE DIABETES” (Indiana University Research and Technology Corp., priority 2013, published 2015).

Legend:
293T cells = test: GC7 treatment of transfected 293T cells, immunoblot of cell extracts; assay type: cell-based, human
Description: (§1) Cell culture, transfection and DHS inhibition—Human 293T and rat INS-1(832/13) β cells were cultured as described. Cells were transiently transfected with plasmids encoding EGFP-eIF5A, EGFP-eIF5A(K50A) and EGFP-DHS constructs using Lipofectamine 2000 (Invitrogen) for 16 hours before cell extraction or immunofluorescence analysis. The DHS inhibitor GC7 (Biosearch Technologies) was prepared and used in cell culture as previously described.
(§2) Antibodies and immunoblotting—The rabbit polyclonal antibody IU-88 against hypusinated human eIF5A was generated in rabbits using the synthetic hypusine-containing peptide C-Ahx-STSKTG[hypusine]HGHAKV-amide (SEQ ID NO. 1) by contract to 21st Century Biochemicals. Monoclonal mouse pan-anti-eIF5A antibody was from BD Biosciences and anti-actin antibody was from MP Biomedicals. Immunoblot analysis was visualized using a LiCor Odyssey fluorescence system following electrophoresis on a 4-20% SDS polyacrylamide gel. Primary antibodies were diluted 1:1500 (IU-88) and 1:10,000 (anti-pan-eIF5A).
Referring now to FIG. 1D. When 293T cells are transfected with GFP-eIF5A, a weak but detectable signal corresponding to GFP-eIF5A is observed using IU-88 (lane 1).

DHS = biological target: T1, DHS (Homo sapiens, UniProt P49366); test: in vitro hypusination reaction of recombinant eIF5A with DHS, DHH, spermidine and GC7, immunoblot read-out; assay type: biochemical
T1 construct: His6 (N); made in house; host or cells: E. coli
T1 sequence (P49366 1-369): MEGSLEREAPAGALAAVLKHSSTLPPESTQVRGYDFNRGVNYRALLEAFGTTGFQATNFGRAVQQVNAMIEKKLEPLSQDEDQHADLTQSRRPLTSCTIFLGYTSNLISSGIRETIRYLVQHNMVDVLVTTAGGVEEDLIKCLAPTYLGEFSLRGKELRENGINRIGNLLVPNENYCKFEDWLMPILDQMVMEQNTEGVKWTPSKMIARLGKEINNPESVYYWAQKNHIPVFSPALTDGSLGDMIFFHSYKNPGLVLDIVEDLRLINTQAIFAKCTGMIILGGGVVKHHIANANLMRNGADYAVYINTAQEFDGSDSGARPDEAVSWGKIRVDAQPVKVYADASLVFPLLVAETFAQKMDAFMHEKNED
Description: Reactions in vitro—For in vitro experiments, eIF5A protein was purified from E. coli as a GST fusion, after which the GST tag was proteolytically removed. DHS protein was purified from E. coli as an N-terminal His6 fusion. Purified human DHH protein was purchased from OriGene. The hypusination reactions in vitro proceeded as previously published.
as §2
In order to determine if IU-88 specifically recognizes the deoxyhypusine or hypusine forms of eIF5A, immunoblots of reactions in which recombinant human eIF5A was incubated in vitro with DHS, DHH, spermidine, and/or the potent DHS inhibitor GC7 were performed. Referring now to FIG. 1A. […] Increasing the DHS concentration and time of incubation led to increasing eIF5A signal intensity in these studies (data not shown).

INS-1 β cells = test: GC7 treatment of transfected INS-1 cells, immunoblot of cell extracts; assay type: cell-based, rat; details: increasing GC7 concentrations, FIG. 1E
Description: as §1, §2
Referring now to FIG. 1E.

- eIF5A signal intensity (IU-88 immunoblot) (DHS; co-incubation with 300 nM GC7, FIG. 1A lanes 3 and 6): reduction in eIF5A signal intensity
- inhibition of eIF5A signal intensity (IU-88 immunoblot) (DHS; higher concentrations of GC7 up to 10 μM, FIG. 1B): near-complete inhibition
Structure (SMILES): NCCCCCCCN=C(N)N [GC7]
- GFP-eIF5A signal detected by IU-88 (293T cells; 293T cells co-transfected with GFP-DHS, GC7, FIG. 1D lanes 5 and 6): corresponding decrease in the presence of GC7
- GFP-eIF5A signal detected by IU-88 (293T cells; 293T cells transfected with GFP-eIF5A, increasing concentrations of GC7, FIG. 1D lanes 2 and 3): signal decreases further
- endogenous eIF5A signal recognized by IU-88 (293T cells; 293T cells, increasing GC7): observed to decrease with increasing GC7
- GFP-eIF5A signal observed with IU-88 (INS-1 β cells): reduces the GFP-eIF5A signal observed with IU-88
- signal observed with the pan-anti-eIF5A antibody (INS-1 β cells): also reduces the signal observed with the pan-anti-eIF5A antibody
